Tests used:
Type in all cases: in vivo
[1] = system: Echinochloa crus-galli (ECHCG); assay: Post-emergence herbicidal activity, glasshouse pot test; settings: rate 250 g/ha, evaluated after 13 days; for pest or weed control at 250 g/ha: Echinochloa crus-galli, 312 h, read-out: Post-emergence activity ECHCG (100=total damage to plant; 0=no damage to plant)
Summary of the method: (§1)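 Visual damage (0 = no damage, 100 = total damage) was rated 13 days after spraying. Treatment was applied one day after sowing for pre-emergence, or after 8 days of cultivation for post-emergence, as aqueous spray of an acetone/water (50:50) formulation with 0.5% Tween 20.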

Avena fatua (AVEFA) [2] = assay: as above; settings: rate 250 g/ha, evaluated after 13 days; for pest or weed control at 250 g/ha: Avena fatua, 312 h, read-out: Post-emergence activity AVEFA (100=total damage to plant; 0=no damage to plant)
Summary of the method: as §1

[3] = system: Alopecurus myosuroides (ALOMY); assay: as above; settings: rate 250 g/ha, evaluated after 13 days; for pest or weed control at 250 g/ha: Alopecurus myosuroides, 312 h, read-out: Post-emergence activity ALOMY (100=total damage to plant; 0=no damage to plant)
Summary of the method: as §1

Lolium perenne (LOLPE) [4] = assay: as above; settings: rate 250 g/ha, evaluated after 13 days; for pest or weed control at 250 g/ha: Lolium perenne, 312 h, read-out: Post-emergence activity LOLPE (100=total damage to plant; 0=no damage to plant)
Summary of the method: as §1

[5] = system: Echinochloa crus-galli (ECHCG); assay: Pre-emergence herbicidal activity, glasshouse pot test; settings: evaluated after 13 days; for pest or weed control at 250 g/ha: Echinochloa crus-galli, 312 h, Rate 250 g/ha, read-out: Pre-emergence activity ECHCG (100=total damage to plant; 0=no damage to plant)
Summary of the method: as §1

Avena fatua (AVEFA) [6] = assay: as above; settings: evaluated after 13 days; for pest or weed control at 250 g/ha: Avena fatua, 312 h, Rate 250 g/ha, read-out: Pre-emergence activity AVEFA (100=total damage to plant; 0=no damage to plant)
Summary of the method: as §1

[7] = system: Alopecurus myosuroides (ALOMY); assay: as above; settings: evaluated after 13 days; for pest or weed control at 250 g/ha: Alopecurus myosuroides, 312 h, Rate 250 g/ha, read-out: Pre-emergence activity ALOMY (100=total damage to plant; 0=no damage to plant)
Summary of the method: as §1

Lolium perenne (LOLPE) [8] = assay: as above; settings: evaluated after 13 days; for pest or weed control at 250 g/ha: Lolium perenne, 312 h, Rate 250 g/ha, read-out: Pre-emergence activity LOLPE (100=total damage to plant; 0=no damage to plant)
Summary of the method: as §1

| Compound | pest or weed control at 250 g/ha ([1]; glasshouse) | pest or weed control at 250 g/ha (Avena fatua (AVEFA) [2]; glasshouse) | pest or weed control at 250 g/ha ([3]; glasshouse) | pest or weed control at 250 g/ha (Lolium perenne (LOLPE) [4]; glasshouse) | pest or weed control at 250 g/ha ([5]; pre-emergence spray) | pest or weed control at 250 g/ha (Avena fatua (AVEFA) [6]; pre-emergence spray) | pest or weed control at 250 g/ha ([7]; pre-emergence spray) | pest or weed control at 250 g/ha (Lolium perenne (LOLPE) [8]; pre-emergence spray) | other results |
| --- | --- | --- | --- | --- | --- | --- | --- | --- | --- |
| CCc1ccc(Oc2nc3c(Cl)cccc3s2)cc1C1=C(O)C(C)(C)OC(C)(C)C1=O [Example A-193] | 100% | 10% | 80% | 100% | 90% | 20% | 30% | 70% | – |
| CCc1ccc(Oc2ccccc2F)cc1C1=C(O)C(C)(C)OC(C)(C)C1=O [Example A-13] | 70% | 0% | 0% | 0% | 0% | 0% | 0% | 0% | – |
| CCC(=O)OC1=C(c2cc(Oc3ccc(C#N)cc3F)ccc2CC)C(=O)C(C)(C)OC1(C)C [Example P-2] | – | – | – | – | – | – | – | – | ECHCG damage to plant (100=total damage to plant; 0=no damage to plant) [1]: 100; AVEFA damage to plant (100=total damage to plant; 0=no damage to plant) (Avena fatua (AVEFA) [2]): 70; ALOMY damage to plant (100=total damage to plant; 0=no damage to plant) [3]: 90; LOLPE damage to plant (100=total damage to plant; 0=no damage to plant) (Lolium perenne (LOLPE) [4]): 90; ECHCG damage to plant (100=total damage to plant; 0=no damage to plant) ([5]; pre-emergence, rate 250 g/ha): 100; AVEFA damage to plant (100=total damage to plant; 0=no damage to plant) (Avena fatua (AVEFA) [6]; pre-emergence, rate 250 g/ha): 70; ALOMY damage to plant (100=total damage to plant; 0=no damage to plant) ([7]; pre-emergence, rate 250 g/ha): 80; LOLPE damage to plant (100=total damage to plant; 0=no damage to plant) (Lolium perenne (LOLPE) [8]; pre-emergence, rate 250 g/ha): 100 |
| CCc1ccc(Oc2ccc(Br)cc2)cc1C1=C(O)C(C)(C)OC(C)(C)C1=O [Example A-8] | 100% | 0% | 100% | 100% | 100% | 10% | 60% | 100% | – |
| CC1(C)OC(C)(C)C(O)=C(c2cc(Oc3ccc(F)cc3)ccc2C2CC2)C1=O [Example A-353] | – | – | – | – | – | – | – | – | pest or weed control at 250 g/ha [1]: 100%; pest or weed control at 250 g/ha (Avena fatua (AVEFA) [2]): 10%; pest or weed control at 250 g/ha [3]: 10%; pest or weed control at 250 g/ha (Lolium perenne (LOLPE) [4]): 50%; pest or weed control at 250 g/ha ([5]; pre-emergence): 100%; pest or weed control at 250 g/ha (Avena fatua (AVEFA) [6]; pre-emergence): 0%; pest or weed control at 250 g/ha ([7]; pre-emergence): 0%; pest or weed control at 250 g/ha (Lolium perenne (LOLPE) [8]; pre-emergence): 30% |
| CCc1ccc(Oc2ccc(Br)c(C)c2)cc1C1=C(O)C(C)(C)OC(C)(C)C1=O [Example A-11] | 60% | 20% | 50% | 50% | 0% | 0% | 0% | 0% | – |
| CCc1ccc(Oc2nc3cc(OC)ccc3s2)cc1C1=C(O)C(C)(C)OC(C)(C)C1=O [Example A-217] | 70% | 50% | 60% | 60% | 40% | 0% | 30% | 60% | – |
| CCc1ccc(Oc2cc(Cl)c(Cl)nn2)cc1C1=C(O)C(C)(C)OC(C)(C)C1=O [Example A-129] | 30% | 10% | 10% | 10% | 30% | 0% | 10% | 10% | – |
| CCc1ccc(Oc2ccc3cc(Cl)ccc3n2)cc1C1=C(O)CC2(CCOCC2)CC1=O [Example A-191] | 100% | 100% | 100% | 100% | 90% | 40% | 40% | 60% | – |
| CCc1ccc(Oc2ccc(Br)cc2C#N)cc1C1=C(O)C(C)(C)OC(C)(C)C1=O [Example A-225] | 90% | 50% | 60% | 70% | 60% | 0% | 0% | 10% | – |
| CCc1ccc(Oc2cnc3cc(F)ccc3n2)cc1C1=C(O)C(C)(C)OC(C)(C)C1=O [Example A-172] | 100% | 100% | 100% | 100% | 100% | 60% | 90% | 100% | – |
| CCc1ccc(Oc2nc3ccccc3cc2C)cc1C1=C(O)C(C)(C)OC(C)(C)C1=O [Example A-253] | 70% | 40% | 50% | 70% | 80% | 30% | 70% | 100% | – |
| CCc1ccc(Oc2ccc([N+](=O)[O-])cc2C#N)cc1C1=C(O)C(C)(C)OC(C)(C)C1=O [Example A-202] | 60% | 20% | 10% | 30% | 60% | 0% | 0% | 10% | – |
| CCc1ccc(Oc2ccc3cc(Cl)ccc3n2)cc1C1=C(O)CC(C)(C)CC1=O [Example A-261] | 100% | 100% | 90% | 100% | 90% | 50% | 80% | 80% | – |
| CCc1ccc(Oc2ncc(Cl)cc2Cl)cc1C1=C(O)CC2(CCOCC2)CC1=O [Example A-275] | 100% | 100% | 90% | 100% | 100% | 90% | 100% | 100% | – |
| CCc1ccc(Oc2ccc(Br)cc2F)cc1C1=C(O)CCC(C)(C)C1=O [Example A-114] | 80% | 10% | 10% | 50% | 60% | 50% | 20% | 90% | – |
| CCc1ccc(Oc2nc3cc(Cl)ccc3s2)cc1C1=C(O)CC(C)(C)CC1=O [Example A-293] | 100% | 100% | 100% | 100% | 100% | 30% | 80% | 100% | – |
| CCc1ccc(Oc2ccc(C#N)c(C#N)c2)cc1C1=C(O)C(C)(C)OC(C)(C)C1=O [Example A-77] | 70% | 30% | 60% | 30% | 70% | 20% | 40% | 30% | – |
